What was measured:
[1] = system: aorta rings; experiment: Vessel-relaxing action in vitro (aorta rings, phenylephrine contraction); details: Oryctolagus cuniculus, concentration required to reduce phenylephrine-induced contraction of rabbit aorta rings by 50%
In short: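 Rabbit aortic rings 1.5 mm wide were held under preload in carbogen-gassed Krebs-Henseleit at 37 °C and contracted with cumulative phenylephrine. Test substance was added in rising doses on successive passes, each compared with the preceding control contraction. IC50 is the concentration that halves contraction, with 0.1% DMSO in the bath.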

[2] = molecular target: T1, recombinant guanylate cyclase reporter cell line (Rattus norvegicus, UniProt P19686+P20595); experiment: Action on recombinant guanylate cyclase reporter cell line; assay type: cell-based
T1 construct: expressed in transfected cells
T1 sequence (P20595 1-619): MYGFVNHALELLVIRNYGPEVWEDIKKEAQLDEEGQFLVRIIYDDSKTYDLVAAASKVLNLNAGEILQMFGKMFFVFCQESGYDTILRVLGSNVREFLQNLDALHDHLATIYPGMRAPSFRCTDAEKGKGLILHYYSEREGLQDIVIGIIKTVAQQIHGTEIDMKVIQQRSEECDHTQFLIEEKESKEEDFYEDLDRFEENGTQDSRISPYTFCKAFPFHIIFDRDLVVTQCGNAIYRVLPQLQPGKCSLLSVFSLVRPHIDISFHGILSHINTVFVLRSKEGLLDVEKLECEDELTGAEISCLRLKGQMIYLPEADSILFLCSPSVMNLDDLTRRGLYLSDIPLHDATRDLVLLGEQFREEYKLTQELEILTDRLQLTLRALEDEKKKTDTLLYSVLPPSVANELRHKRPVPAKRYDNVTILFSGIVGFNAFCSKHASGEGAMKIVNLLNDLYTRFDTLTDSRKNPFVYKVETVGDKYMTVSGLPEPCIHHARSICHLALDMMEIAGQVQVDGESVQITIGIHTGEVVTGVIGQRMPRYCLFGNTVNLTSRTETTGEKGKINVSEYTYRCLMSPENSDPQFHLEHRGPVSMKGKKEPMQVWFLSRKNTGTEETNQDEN
T1 sequence (P19686 1-690): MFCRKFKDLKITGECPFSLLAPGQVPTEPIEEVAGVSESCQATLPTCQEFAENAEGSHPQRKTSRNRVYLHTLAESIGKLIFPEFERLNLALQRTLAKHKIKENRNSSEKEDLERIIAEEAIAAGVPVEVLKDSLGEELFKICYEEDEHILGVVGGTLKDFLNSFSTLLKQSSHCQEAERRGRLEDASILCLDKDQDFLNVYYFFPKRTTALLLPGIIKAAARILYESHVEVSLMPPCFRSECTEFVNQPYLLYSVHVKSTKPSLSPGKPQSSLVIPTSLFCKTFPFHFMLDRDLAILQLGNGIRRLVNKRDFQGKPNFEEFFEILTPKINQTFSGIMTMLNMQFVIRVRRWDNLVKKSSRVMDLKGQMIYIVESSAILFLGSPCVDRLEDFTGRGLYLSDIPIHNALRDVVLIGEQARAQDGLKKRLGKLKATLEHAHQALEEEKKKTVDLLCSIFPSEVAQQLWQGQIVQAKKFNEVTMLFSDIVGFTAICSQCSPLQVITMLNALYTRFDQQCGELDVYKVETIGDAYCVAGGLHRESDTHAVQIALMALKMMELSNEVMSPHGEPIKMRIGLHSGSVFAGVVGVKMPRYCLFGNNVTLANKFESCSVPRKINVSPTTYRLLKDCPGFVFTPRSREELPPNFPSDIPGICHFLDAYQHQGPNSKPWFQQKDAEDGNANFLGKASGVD
Procedure: B-2. Action on Recombinant Guanylate Cyclase Reporter Cell Line
The cellular action of the compounds according to the invention is determined on a recombinant guanylate cyclase reporter cell line, as described in F. Wunder et al., Anal. Biochem. 339, 104-112 (2005).

[3] = molecular target: T2, human phosphodiesterase 5 (PDE-5) (Homo sapiens, UniProt O76074); experiment: Inhibition of human phosphodiesterase 5 (PDE-5), SPA assay; assay type: biochemical; details: PDE-5 preparation from human platelets, [8-3H]cGMP substrate
T2 construct: PDE-5 preparations are obtained from human platelets by lysis; from tissue; host or cells: human platelets
In short: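 Scintillation proximity read-out with yttrium beads after 60 min room-temperature hydrolysis of 0.025 μCi [8-3H]cGMP, pH 7.5 Tris/MgCl2/EDTA buffer. Enzyme is a human platelet PDE-5 fraction, diluted to keep substrate turnover below 70%. Test concentrations 4 μM–0.0018 μM final; IC50 from inhibition curves.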

Cc1ncc2c(-c3nc(NCCC(F)(F)F)c4c(n3)NC(=O)C4(C)C)nn(Cc3ccccc3F)c2n1 [Example 108, 2-[1-(2-Fluorobenzyl)-6-methyl-1H-pyrazolo[3,4-d]pyrimidin-3-yl]-5,5-dimethyl-4-[(3,3,3-trifluoropropyl)amino]-5,7-dihydro-6H-pyrrolo[2,3-d]pyrimidin-6-one]
IC50 [1]: 444 nM
MEC (minimal effective concentration) [2]: 0.3 μm
IC50 [3]: 25 nM

CC1(C)C(=O)Nc2nc(-c3nn(Cc4ccccc4F)c4ncccc34)nc(O)c21 [Example 109, 2-[1-(2-Fluorobenzyl)-1H-pyrazolo[3,4-b]pyridin-3-yl]-4-hydroxy-5,5-dimethyl-5,7-dihydro-6H-pyrrolo[2,3-d]pyrimidin-6-one]
IC50 [1]: 81 nM
MEC (minimal effective concentration) [2]: 0.03 μm
IC50 [3]: 50 nM

CCCOc1nc(-c2nn(Cc3ccccc3F)c3ncccc23)nc2c1C(C)(C)C(=O)N2 [Example 111, 2-[1-(2-Fluorobenzyl)-1H-pyrazolo[3,4-b]pyridin-3-yl]-5,5-dimethyl-4-propoxy-5,7-dihydro-6H-pyrrolo[2,3-d]pyrimidin-6-one]
IC50 [1]: 1620 nM
MEC (minimal effective concentration) [2]: 0.3 μm
IC50 [3]: 320 nM

CCOc1nc(-c2nn(Cc3ccccc3F)c3ncccc23)nc2c1C(C)(C)C(=O)N2 [Example 112, 4-Ethoxy-2-[1-(2-fluorobenzyl)-1H-pyrazolo[3,4-b]pyridin-3-yl]-5,5-dimethyl-5,7-dihydro-6H-pyrrolo[2,3-d]pyrimidin-6-one]
IC50 [1]: 1620 nM
MEC (minimal effective concentration) [2]: 0.1 μm
IC50 [3]: 210 nM

CC1(C)C(=O)Nc2nc(-c3nn(Cc4ccccc4F)c4ncccc34)nc(OCC3CC3)c21 [Example 113, 4-(Cyclopropylmethoxy)-2-[1-(2-fluorobenzyl)-1H-pyrazolo[3,4-b]pyridin-3-yl]-5,5-dimethyl-5,7-dihydro-6H-pyrrolo[2,3-d]pyrimidin-6-one]
IC50 [1]: 1960 nM
MEC (minimal effective concentration) [2]: 0.1 μm
IC50 [3]: 120 nM

CC1(C)C(=O)Nc2nc(-c3nn(Cc4ccccc4F)c4ncccc34)nc(OCC(F)(F)F)c21 [Example 115, 2-[1-(2-Fluorobenzyl)-1H-pyrazolo[3,4-b]pyridin-3-yl]-5,5-dimethyl-4-(2,2,2-trifluoroethoxy)-5,7-dihydro-6H-pyrrolo[2,3-d]pyrimidin-6-one]
IC50 [1]: 1630 nM
MEC (minimal effective concentration) [2]: 0.3 μm
IC50 [3]: 250 nM

CC1(C)C(=O)Nc2nc(-c3nn(Cc4ccccc4F)c4ncccc34)nc(OCCO)c21 [Example 117, 2-[1-(2-Fluorobenzyl)-1H-pyrazolo[3,4-b]pyridin-3-yl]-4-(2-hydroxyethoxy)-5,5-dimethyl-5,7-dihydro-6H-pyrrolo[2,3-d]pyrimidin-6-one]
IC50 [1]: 38 nM
MEC (minimal effective concentration) [2]: 0.03 μm
IC50 [3]: 52 nM
